Data set [1] has as its target T1, hPPARalpha (Homo sapiens, UniProt Q07869).
T1 construct: expressed in transfected cells; host or cells: COS-7 (monkey kidney fibroblasts)
T1 sequence (Q07869 239-466 limits assumed): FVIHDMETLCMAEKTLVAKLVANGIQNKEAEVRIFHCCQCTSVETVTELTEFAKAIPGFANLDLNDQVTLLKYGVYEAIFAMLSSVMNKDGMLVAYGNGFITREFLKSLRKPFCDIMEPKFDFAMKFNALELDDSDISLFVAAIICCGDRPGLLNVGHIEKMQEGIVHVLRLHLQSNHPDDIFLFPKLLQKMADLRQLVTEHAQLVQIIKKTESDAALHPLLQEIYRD
Description: PPAR activation: Gal4-hPPARα chimera luciferase transactivation in COS-7 cells, Method 2. Type of data set: cell-based. As to conditions: COS-7, 24 h; for EC50: 1% Ultroser; for Emax: maximum percentage response relative to the reference phenofibric acid, read-out: hPPARalpha % max. On the procedure:
(§1) The activation of the PPARs was evaluated in vitro on a line of monkey kidney fibroblasts (COS-7) by measuring the transcriptional activity of chimeras constituted of the DNA binding domain of the Gal4 transcription factor of yeast and the ligand binding domain of the various PPARs. The compounds were tested at doses between 10^−5 and […] on the chimeras Gal4-PPARα, γ or δ, and the corresponding EC50 values were determined.
(§2) The principle, the cells and the plasmids used for example 5 were also employed in this example. Only the application of the transfection stage is slightly different. The details are presented below.
(§3) The adherent COS-7 cells are transfected with 40 μg of DNA per 225 cm^2 dish, with a pGal4-PPAR/Gal4(RE)_TkpGL3 ratio of 1/10, in the presence of 10% fetal calf serum. The cells are then detached and seeded in the absence of serum in 384-well plates (2×10^4 cells/well) and incubated for 4 hours at 37° C. The compounds are then diluted in a 96-well plate and transferred to the 384-well plate. Activation with the test compounds is carried out for an additional 24 h at 37° C. in the presence of 1% of Ultroser™ lipid-free synthetic serum (Biosepra). These last 2 stages are automated using a Genesis Freedom 200™ station (Tecan). At the end of the experiment, the cells are lysed and the luciferase activity is determined using the Steady-Lite™ HTS (Perkin Elmer) following the supplier's recommendations.

The target in data set [2] is T2, hPPARgamma (Homo sapiens, UniProt P37231).
T2 construct: expressed in transfected cells; host or cells: COS-7 (monkey kidney fibroblasts)
T2 sequence (P37231 238-503 limits assumed): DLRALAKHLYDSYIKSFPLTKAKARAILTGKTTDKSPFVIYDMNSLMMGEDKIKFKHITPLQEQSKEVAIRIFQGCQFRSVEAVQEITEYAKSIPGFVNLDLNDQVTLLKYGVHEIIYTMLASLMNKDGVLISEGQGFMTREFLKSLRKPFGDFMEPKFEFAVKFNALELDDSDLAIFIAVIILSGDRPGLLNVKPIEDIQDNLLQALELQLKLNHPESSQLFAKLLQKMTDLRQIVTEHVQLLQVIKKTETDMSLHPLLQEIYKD
Description: PPAR activation: Gal4-hPPARγ chimera luciferase transactivation in COS-7 cells, Method 2. It is filed as cell-based. As to conditions: COS-7, 24 h, Method 2; for Emax: maximum percentage response relative to the reference rosiglitazone, read-out: hPPARgamma % max; for EC50: 1% Ultroser, read-out: hPPARgamma EC50. On the procedure: The activation of the PPARs was evaluated in vitro on a line of monkey kidney fibroblasts (COS-7) by measuring the transcriptional activity of chimeras constituted of the DNA binding domain of the Gal4 transcription factor of yeast and the ligand binding domain of the various PPARs.
Only the application of the transfection stage is slightly different. The details are presented below.
as §3

Data set [3] deals with T3, hPPARdelta (Homo sapiens, UniProt Q03181).
T3 construct: expressed in transfected cells; host or cells: COS-7 (monkey kidney fibroblasts)
T3 sequence (Q03181 211-439 limits assumed): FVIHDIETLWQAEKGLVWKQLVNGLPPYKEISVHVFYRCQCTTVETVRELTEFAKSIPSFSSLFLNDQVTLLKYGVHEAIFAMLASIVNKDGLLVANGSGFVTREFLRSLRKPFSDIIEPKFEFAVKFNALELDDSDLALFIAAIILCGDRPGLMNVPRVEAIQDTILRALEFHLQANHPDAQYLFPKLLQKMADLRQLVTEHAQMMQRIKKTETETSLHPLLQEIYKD
The experiment in a line: PPAR activation: Gal4-hPPARδ chimera luciferase transactivation in COS-7 cells, Method 2. It is filed as cell-based. Particulars: COS-7, 24 h; for EC50: 1% Ultroser; for Emax: maximum percentage response relative to the reference GW501516, read-out: hPPARdelta % max. As to the method:
as §1, §2, §3

Data set [4] deals with target genes of PPARδ in murine myocytes (C2C12). Description: Expression of target genes of PPARδ (PDK4, CPT1b, UCP2, UCP3) in murine myocytes, quantitative RT-PCR. Particulars: murine myocytes in vitro. It is filed as cell-based. The source says: It is established that regulation of the expression of these genes is directly controlled by PPARδ in this cell type. The more the expression of the genes is increased, the greater the stimulating action of the compound according to the invention on metabolism in the muscle cells.
Cells from the murine cell line C2C12 (obtained from ECACC) are cultivated in DMEM medium (Gibco; 41965-039) with addition of 1% L-glutamine (Gibco; 25030), 1% of penicillin/streptomycin (VWR; BWSTL0022/100) and 10% decomplemented fetal calf serum (FCS. Gibco; 10270-106).
The cells are seeded on 24-well plates at a density of 50·10^3 cells/well. At confluence, the medium is replaced with a differentiating medium (basal medium with addition of 2% of horse serum (Gibco; 26050-088)), then incubated at 37° C. and 5% CO2 for 4 days in order to differentiate them to myocytes.
After 5 days of differentiation, the cells are put in a deprivation medium (basal medium without serum) for 6 hours. The cells are then treated with the compounds according to the invention in the deprivation medium. Compounds 2, 4, 7, 11, 39, 40, 46, 49 and 72 were in dose effect, corresponding to 1×, 10× and 100× their EC50 PPARδ. The compounds according to the invention were dissolved in dimethylsulfoxide (DMSO, Sigma; D5879). The cells were treated for 24 h at 37° C., 5% CO2. The effect of the compounds according to the invention was compared with the effect of DMSO alone.
After treatment, the total RNA is extracted from the cells using the NucleoSpine® 96 RNA kit (Macherey Nagel, Hoerdt, France) following the manufacturer's instructions.
1 μg of total RNA (quantified based on the UV spectrophotometer reading) was then reverse-transcribed to complementary DNA by reaction for 1 hour at 37° C. in a total volume of 30 μl containing buffer 1× (Invitrogen), 1.5 mM of DTT, 0.18 mM of dNTPs (Promega), 200 ng of pdN6 (Amersham), 30 U of RNase inhibitor (Promega) and 1 μl of MMLV-RT (Invitrogen).
The quantitative PCR experiments were carried out using the MyiQ Single-Color Real-Time PCR Detection System (Biorad, Marnes-la-Coquette, France) and were performed using the iQ SYBR Green Supermix kit following the supplier's recommendations, in 96-well plates, on 5 μl of diluted reverse-transcription reaction mixtures with a hybridization temperature of 60° C. Primer pairs specific to the PDK4, CPT1b, UCP2 and UCP3 genes under investigation were used:
The amount of fluorescence emitted is directly proportional to the amount of complementary DNA present at the start of the reaction and amplified during PCR. For each target investigated, a range is produced by successive dilutions of a pool constituted of a few microliters of various reverse-transcription reaction mixtures. The relative expression levels of each target are thus determined using the efficacy curves obtained with the points in the range.
The levels of expression of the genes of interest were then normalized relative to the level of expression of the reference gene 36B4 (whose specific primers are: sense primer: 5′-[…]-3′ (SEQ ID No. 19) and antisense primer: 5′-[…]-3′ (SEQ ID No. 20)). The induction factor, i.e. the ratio of the relative signal (induced by the compound according to the invention) to the mean of the relative values of the control group, was then calculated. The higher this factor, the greater the activating character of the compounds according to the invention with respect to gene expression. The final result is represented as the mean of the induction values in each experimental group.

Data set [5] concerns the target T1, hPPARalpha. Description: PPAR activation: Gal4-hPPARα chimera luciferase transactivation in COS-7 cells, Method 1. It is filed as cell-based. Particulars: COS-7, 24 h; for Emax: maximum percentage response relative to the reference phenofibric acid, read-out: hPPARalpha % max. As to the method:
as §1
(§4) The COS-7 cells were obtained from the ATCC and were cultivated in DMEM medium supplemented with 10% (v/v) of fetal calf serum, 100 U/ml of penicillin (Gibco, Paisley, UK) and 2 mM of L-glutamine (Gibco, Paisley, UK). The cells were incubated at 37° C. in a humid atmosphere containing 5% CO2.
(§5) The plasmids Gal4(RE)_TkpGL3, pGal4-hPPARα, pGal4-hPPARγ, pGal4-hPPARδ and pGal4-φ are described in the literature (Raspe E et al., 1999). The constructs pGal4-hPPARα, pGal4-hPPARγ and pGal4-hPPARδ were obtained by cloning DNA fragments amplified by PCR corresponding to the DEF domains of the human nuclear receptors PPARα, PPARγ and PPARδ in the pGal4-φ vector.
(§6) The COS-7 cells in suspension were transfected with 150 ng of DNA per well, with a pGal4-PPAR/Gal4(RE)_TkpGL3 ratio of 1/10, in the presence of 10% fetal calf serum. The cells were seeded in 96-well plates (4×10^4 cells/well) and then incubated at 37° C. for 24 hours. Activation with the test compounds is carried out for 24 h at 37° C. in serum-free medium. At the end of the experiment, the cells were lysed and the luciferase activity was determined using the Steady-Lite™ HTS (Perkin Elmer) following the supplier's recommendations.

Data set [6] has as its target T2, hPPARgamma. The experiment in a line: PPAR activation: Gal4-hPPARγ chimera luciferase transactivation in COS-7 cells, Method 1. It is filed as cell-based. Particulars: COS-7, 24 h; for Emax: maximum percentage response relative to the reference rosiglitazone, read-out: hPPARgamma % max. As to the method: as §1, §4, §5, §6
Data set [7] has as its target T3, hPPARdelta. The experiment in a line: PPAR activation: Gal4-hPPARδ chimera luciferase transactivation in COS-7 cells, Method 1. As to conditions: COS-7, 24 h; for Emax: maximum percentage response relative to the reference GW501516, read-out: hPPARdelta % max. Type of data set: cell-based. On the procedure: as §1, §4, §5, §6

Turning to `CC(C)(Oc1ccc(CCC(OCc2cccnc2)c2ccc(-c3ccc(C(F)(F)F)cc3)s2)c(Cl)c1Cl)C(=O)O` (centres unmarked) [Compound 39, 2-(2,3-dichloro-4-(3-(pyridin-3-ylmethoxy)-3-(5-(4-(trifluoromethyl)phenyl)thien-2-yl)propyl)phenoxy)-2-methylpropanoic acid], the melting point (commonly the temperature, or range, at which the solid turns liquid) lay within 75 to 77 °C. Besides, in data set [1], a half-maximal response (EC50) required 1010 nM and the Emax amounted to 36%. Besides, in data set [2], the Emax was determined as 52% and the EC50 (in general, the concentration at which the effect is half-maximal) was found to be 550 nM. In data set [3], the EC50 amounted to 6 nM and the Emax turned out to be 90%. In data set [4], the “expression of genes involved in carbohydrate and lipid metabolism and in thermoregulation” value (shortened to “expression of genes involved”) is given as “stimulating effects”.
As for `CC(C)(Oc1ccc(CCC(=O)c2ccc(-c3ccc(C(F)(F)F)cc3)s2)c(F)c1F)C(=O)O` [Compound 46, 2-(2,3-difluoro-4-(3-oxo-3-(5-(4-(trifluoromethyl)phenyl)thien-2-yl)propyl)phenoxy)-2-methylpropanoic acid], the melting point was 165 to 166 °C. Further, in data set [5], the EC50 is 11 nM and the Emax was 58%. In data set [6], the Emax was determined as 30%. Further, in data set [7], the EC50 came out at 18 nM and the Emax was 105%. In data set [4], the “expression of genes involved” value is “stimulating effects”.
Compound `Cc1cc(CCC(=O)c2ccc(-c3ccc(C(F)(F)F)cc3)s2)cc(C)c1OC(C)(C)C(=O)O` [Compound 48, 2-(2,6-dimethyl-4-(3-oxo-3-(5-(4-(trifluoromethyl)phenyl)thien-2-yl)propyl)phenoxy)-2-methylpropanoic acid] returned a melting point of 157 to 158 °C. Further, the Emax in data set [5] is 49%. Also, in data set [6], the EC50 came to 560 nM and the Emax worked out at 85%. Besides, in data set [7], the EC50 worked out at 6 nM and the Emax was 86%. Moreover, in data set [4], the “expression of genes involved” value is recorded as “stimulating effects”.
For `CC(C)(Oc1ccc(CCC(OCc2ccccc2)c2ccc(-c3ccc(C(F)(F)F)cc3)s2)c(F)c1F)C(=O)O` (centres unmarked) [Compound 63, 2-(4-(3-(benzyloxy)-3-(5-(4-(trifluoromethyl)phenyl)thien-2-yl)-propyl)-2,3-difluorophenoxy)-2-methylpropanoic acid], the EC50 came out at 4210 nM in data set [1], 7910 nM in data set [2] and 180 nM in data set [3]. The Emax in data set [1] is 46%; in data set [2], 44%; in data set [3], 97%. Moreover, in data set [4], the “expression of genes involved” value is given as “stimulating effects”.
For `COC(CCc1ccc(OC(C)(C)C(=O)O)c(Cl)c1Cl)c1ccc(-c2ccc(C(F)(F)F)cc2)o1` (centres unmarked) [Compound 72, 2-(2,3-dichloro-4-(3-methoxy-3-(5-(4-(trifluoromethyl)phenyl)fur-2-yl)propyl)phenoxy)-2-methylpropanoic acid], the EC50 worked out at 270 nM in data set [1] and 160 nM in data set [2]. The results for the Emax in data set [1], in data set [2] and in data set [3] were 59%, 70% and 97%, respectively. The “expression of genes involved” value in data set [4] is recorded as “stimulating effects”.

The values above are taken from patent publication US8088819B2, “Derivatives of substituted 3-phenyl-1-(phenylthienyl)propan-1-ones and of 3-phenyl-1-(phenylfuranyl) propan-1-ones, preparation and use” (priority 2006, dated 2012).
